Reference: patent US20130243928A1 (priority 2007, published 2013)

Assay: Distribution (dissolution) of resveratrol in an aliquot of wine with heating
Type: physicochemical
Conditions: heating up to about 40° C., no added alcohol or other solvent
Source text: The size, temperature and heating time for a batch of resveratrol concentrate will vary depending on how much resveratrol is needed to be added. […] Temperature can be measured by placing a thermometer in the batch of wine and timing the process.

amount of resveratrol that can be distributed in an aliquot of wine: about 1.25 (wt/vol)
SMILES: Oc1ccc(/C=C/c2cc(O)cc(O)c2)cc1 [resveratrol, trans-3,5,4′-trihydroxystilbene]
